{"source": "patent US8389573B2", "about": "“Glycyrrhetinic acid derivatives” (Wellington Laboratories Inc., priority 2006, dated 2013)", "key": {"PPARγ": {"tested_on": "PPARγ", "settings": "SW480 cells, previous studies (22); cited from earlier work"}, "SW480 cells": {"tested_on": "SW480 cells", "experiment": "Western blot analysis in SW480 cells", "format": "cell-based, human", "settings": "SW480, treatment for 3 days", "experimental": "SW-480 and HT-29 (3×10^5) cells were seeded in six-well plates in DMEM/Ham's F-12 media containing 2.5% charcoal-stripped FBS for 24 h and then treated with either the vehicle (DMSO) or the indicated compounds. Whole-cell lysates were obtained using high-salt buffer [50 mM HEPES, 500 mM NaCl, 1.5 mM MgCl2, 1 mM EGTA, 10% glycerol, and 1% Triton X-100, pH 7.5, and 5 μl/ml Protease Inhibitor Cocktail (Sigma-Aldrich)]. Protein samples were incubated at 100° C. for 2 min, separated on 10% SDS-PAGE at 120 V for 3 to 4 h in 1× running buffer (25 mM Tris-base, 192 mM glycine, and 0.1% SDS, pH 8.3), and transferred to polyvinylidene difluoride membrane (PVDF; Bio-Rad, Hercules, Calif.) at […] for 16 h at 4° C. in 1× transfer buffer (48 mM Tris-HCl, 39 mM glycine, and 0.025% SDS). The PVDF membrane was blocked in 5% TBST-Blotto (10 mM Tris-HCl, 150 mM NaCl, pH 8.0, 0.05% Triton X-100, and 5% nonfat dry milk) with gentle shaking for 30 min and was incubated in fresh 5% TBST-Blotto with 1:1000 (for caveolin-1, p27, p21, cyclin D1, Grp78), 1:500 (for KLF4, NAG-1), 1:250 (for PARP), and 1:5000 (for β-actin) primary antibody overnight with gentle shaking at 4° C. After washing with TBST for 10 min, the PVDF membrane was incubated with secondary antibody (1:5000) in 5% TBST-Blotto for 90 min. The membrane was washed with TBST for 10 min, incubated with 10 ml of chemiluminescence substrate (PerkinElmer) for 1.0 min, and exposed to Kodak X-OMAT AR autoradiography film (Eastman Kodak, Rochester, N.Y.)."}, "[1]": {"target": "T1, PPARγ-coactivator interactions (Homo sapiens, UniProt P37231)", "T1 construct": "expressed in transfected cells; host or cells: SW480 cells, transient transfection (LipofectAMINE)", "T1 sequence (P37231 238-503 limits assumed)": "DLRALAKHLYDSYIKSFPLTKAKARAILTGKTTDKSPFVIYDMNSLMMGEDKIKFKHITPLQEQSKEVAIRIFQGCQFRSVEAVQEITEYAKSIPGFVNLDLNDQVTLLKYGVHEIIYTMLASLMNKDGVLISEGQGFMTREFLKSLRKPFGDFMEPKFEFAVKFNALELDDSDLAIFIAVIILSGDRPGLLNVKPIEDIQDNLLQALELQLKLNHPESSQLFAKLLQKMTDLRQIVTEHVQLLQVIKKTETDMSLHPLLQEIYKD", "settings": "SW480 cells, reference (22); cited from earlier work"}, "LNCaP cells": {"tested_on": "LNCaP cells", "experiment": "Western blot analysis and DNA fragmentation assay in LNCaP cells", "format": "cell-based, human", "settings": "2.5 μM β-CDODA-Me, 24 hr", "experimental": "Cell Proliferation and DNA Fragmentation Assays: LNCaP prostate cancer cells (2×10^4 per well) were added to 12-well plates and allowed to attach for 24 hr. The medium was then changed to DMEM/Ham's F-12 media containing 2.5% charcoal-stripped FBS, and either vehicle (DMSO) or the indicated C-DIMs were added. Fresh medium and indicated compounds were added every 48 hr, and cells were then trypsinized and counted after 2, 4, and 6 days using a Coulter Z1 cell counter (Beckman Coulter, Fullerton, Calif.). Each experiment was done in triplicate, and results are expressed as means±S.E. for each set of three experiments. The DNA fragmentation assay was performed using a BioVision Apoptotic DNA ladder extraction kit (BioVision, Mountain View, Calif.) according to the manufacturer's protocol.\nWestern Blot Analysis: Cells were seeded in DMEM:Ham's F-12 media containing 2.5% charcoal-stripped FBS for 24 hr and then treated with either the vehicle (DMSO) or the indicated compounds. Cells were collected by scraping in 150 μl high salt lysis buffer (50 mM HEPES, 0.5 M NaCl, 1.5 mM MgCl2, 1 mM EGTA, 10% (v/v) glycerol, 1% (v/v) Triton-X-100 and 5 μL/ml of Protease Inhibitor Cocktail (Sigma). The lysates were incubated on ice for 1 hr with intermittent vortexing followed by centrifugation at 20,000 g for 10 min at 4° C. Before electrophoresis, samples were boiled for 3 min at 100° C.; the amount of protein was determined and 60 μg protein applied per lane. Samples were subjected to SDS-PAGE on 10% gel at 120 V for 3 to 4 hr. Proteins were transferred on to polyvinylidene difluoride membrane (PVDF; Bio-Rad, Hercules, Calif.) at 0.9 amp for 90 min at 4° C. in 1× transfer buffer (48 mM Tris-HCl, 39 mM glycine, and 0.025% SDS). The membranes were blocked for 30 min with 5% TBST-Blotto (10 mM Tris-HCl, 150 mM NaCl (pH 8.0), 0.05% Triton X-100 and 5% non-fat dry milk) and incubated in fresh 5% TBST-Blotto with primary antibody overnight with gentle shaking at 4° C. After washing with TBST for 10 min, the PVDF membrane was incubated with secondary antibody (1:5000) in 5% TBST-Blotto for 2-3 hr. The membrane was washed with TBST for 10 min and incubated with 10 ml of chemiluminescence substrate (PerkinElmer Life Sciences) for 1.0 min and exposed to ImageTeK-H medical imaging film (Eastman American X-ray Supply, Inc.)."}, "p21 promoter": {"tested_on": "p21 promoter", "experiment": "p21 promoter construct luciferase assay in LNCaP cells", "format": "cell-based", "settings": "10 μM PD98059"}, "[2]": {"tested_on": "Sp1, Sp3 and Sp4 in liver", "experiment": "Sp protein expression in non-target tissue (liver) of treated mice", "format": "in vivo", "settings": "preliminary results", "text": "(i) Animal treatment: Male athymic nude mice are obtained from commercial sources and their use approved by the Institutional Animal Care and Use Committee. Ten animals are used for each treatment group and based on consultation with biostatisticians, this number is sufficient for determining statistical significance between treatment groups (41, 42). At least one AR-positive (LNCaP/22Rv1) and AR-negative (PC3/DU145) prostate cancer cell line is used in the xenograft study. Cells are harvested by exposure to trypsin and resuspended in serum-free Hanks' balanced salt solution (HBSS). […] In addition, Western blot analysis of Sp proteins, proapoptotic and antiangiogenic responses is determined on whole cell lysates from compound- and corn oil (vehicle)-treated tumors. Where possible (depending on the amount of protein extracted), the effects of the compound versus corn oil on expression of these proteins is quantitated and statistically analyzed. In addition, the effects of the compound on Sp protein expression in non-target tissue (e.g. liver and kidney) is determined. […] Immunostaining for Sp1, Sp3 and Sp4 and for angiogenic (VEGF, VEGFR1 and VEGFR2) and apoptotic (cleaved PARP, activated caspase 3, survivin and TUNEL) proteins/responses are determined as described above."}}}
{"smiles": "COC(=O)[C@]12CCC(C)(C)C[C@H]1[C@H]1C(=O)C=C3[C@@]4(C)C=C(C#N)C(=O)C(C)(C)[C@@H]4CC[C@@]3(C)[C@]1(C)CC2", "note": "[CDDO-Me]", "values": [{"measurement": "luciferase activity with GAL4-PPARγ/GAL4-Luc", "setting": "PPARγ", "value": "induced luciferase activity"}, {"measurement": "caveolin-1 protein expression", "setting": "SW480 cells", "value": "induce caveolin-1 protein"}, {"measurement": "interactions between VP-PPARγ and GAL4-coactivator/corepressor chimeras (SRC1, SRC2, SRC3, PGC1, TRAP220, CARM1, SMRT)", "setting": "[1]", "value": "induced interactions"}]}
{"smiles": "COc1cccc(-c2cc(=O)c3ccccc3o2)c1N", "note": "[PD98059, reference compound]", "values": [{"measurement": "effect of kinase inhibitor on induction of ATF-3 by β-CDODA-Me", "setting": "LNCaP cells", "value": "blocked induction"}, {"measurement": "effect of kinase inhibitor on induction of NAG-1 by β-CDODA-Me", "setting": "LNCaP cells", "value": "inhibited induction"}, {"measurement": "effect on β-CDODA-Me downregulation of cyclin D1 and induction of p21", "setting": "LNCaP cells", "value": "partially blocked"}, {"measurement": "effect on β-CDODA-Me-induced p21-luc(101) luciferase activity", "setting": "p21 promoter", "value": "inhibited this response"}]}
{"smiles": "COC(=O)[C@@]1(C)CCC2(C)CC[C@]3(C)C(=CC(=O)[C@@H]4C5(C)C=C(I)C(=O)C(C)(C)[C@@H]5CCC43C)C2C1", "note": "(stereo partly drawn) [β-IDODA-Me, Methyl 2-iodo-3,11-dioxo-18β-oleana-1,12-diene-30-oate]", "values": [{"measurement": "Sp1, Sp3 and Sp4 expression in liver", "setting": "[2]", "value": "unaffected"}]}
